Reference: ChEMBL document CHEMBL1649573, “Protein kinase G is required for intrinsic antibiotic resistance in mycobacteria” (2009)
Values after ≈ are worked out from the molar mass of the structure shown.

system: Mycolicibacterium smegmatis; assay: Antimycobacterial activity against PknGMsm-deficient Mycobacterium smegmatis harboring PknG Mtb gene by Etest method; assay type: functional

Compound | MIC [µg/mL]
CC[C@H]1OC(=O)[C@H](C)[C@@H](O[C@H]2C[C@@](C)(OC)[C@@H](O)[C@H](C)O2)[C@H](C)[C@@H](O[C@@H]2O[C@H](C)C[C@H](N(C)C)[C@H]2O)[C@](C)(O)C[C@@H](C)C(=O)[C@H](C)[C@@H](O)[C@]1(C)O [ERYTHROMYCIN] | 32 (≈ 43.6 µM)
CC[C@@H](CO)NCCN[C@@H](CC)CO [ETHAMBUTOL] | 0.25 (≈ 1.22 µM)
C[C@@H](O)[C@H]1C(=O)N2C(C(=O)O)=C(SCCNC=N)C[C@H]12 [IMIPENEM ANHYDROUS] | 6 (≈ 20 µM)
CO[C@H]1/C=C/O[C@@]2(C)Oc3c(C)c(O)c4c(O)c(c(/C=N/N5CCN(C)CC5)c(O)c4c3C2=O)NC(=O)/C(C)=C\C=C\[C@H](C)[C@H](O)[C@@H](C)[C@@H](O)[C@@H](C)[C@H](OC(C)=O)[C@@H]1C [RIFAMPIN] | > 32
CN[C@H](CC(C)C)C(=O)N[C@H]1C(=O)N[C@@H](CC(N)=O)C(=O)N[C@H]2C(=O)N[C@H]3C(=O)N[C@H](C(=O)N[C@H](C(=O)O)c4cc(O)cc(O)c4-c4cc3ccc4O)[C@H](O)c3ccc(c(Cl)c3)Oc3cc2cc(c3O[C@@H]2O[C@H](CO)[C@@H](O)[C@H](O)[C@H]2O[C@H]2C[C@](C)(N)[C@H](O)[C@H](C)O2)Oc2ccc(cc2Cl)[C@H]1O [VANCOMYCIN] | 48 (≈ 33.1 µM)
